Reference: PMC8426295, “Cytotoxic and radiosensitising effects of a novel thioredoxin reductase inhibitor in breast cancer” (Investigational New Drugs, 2021)
Marks after values point to notes of the source that are not given here.

Tests used:
[1] = test system: MCF-7 cells; assay: Cell proliferation assay (cell count); format: cell-based; details: Homo sapiens, MCF7, 48 h
Procedure: (§1) 1 × 10^5 cells (2 × 10^5 for T47D’s) were seeded, in triplicate, in 6-well plates and incubated overnight before being treated with IQ9 (0–5000 nM) or doxorubicin (400–600 nM) (positive control and comparator). Total cells were counted after 48 h using a haemocytometer. The total cell count in drug treatment wells was normalised as a percentage of the total cells in vehicle control wells.
(§2) IC50 values were calculated from dose-response curves using an SPSS regression model between inhibition ratios and concentration gradients. The radiobiological parameters: alpha (α), beta (β), α/β ratio, and surviving fraction at 2 Gy (SF2) were extracted from the survival curves fitted using the LQ model. All results are presented as average ± standard deviation (SD) of three independent experiments, each performed in triplicate. Data were analysed using the student T-test and ANOVA one-way test. Statistical analysis was performed using SPSS 23.0 software. Values of P < 0.05 were considered statistically significant.

[2] = test system: MDA-MB-231 cells; assay: Cell proliferation assay (cell count); format: cell-based; details: Homo sapiens, MDA-MB-231, 48 h
Procedure: as §1, §2

[3] = test system: MDA-MB-436 cells; assay: Cell proliferation assay (cell count); format: cell-based; details: Homo sapiens, MDA-MB-436, 48 h
Procedure: as §1, §2

[4] = test system: MDA-MB-468 cells; assay: Cell proliferation assay (cell count); format: cell-based; details: Homo sapiens, MDA-MB-468, 48 h
Procedure: as §1, §2

[5] = test system: T47D cells; assay: Cell proliferation assay (cell count); format: cell-based; details: Homo sapiens, 48 h
Procedure: as §1, §2

[6] = test system: MDA-MB-436 cells; assay: Drug-radiation combination clonogenic survival (LQ model); format: cell-based, human
Procedure: (§3) 5 × 10^5 cells were seeded in T25 cm^2 tissue culture flasks and incubated overnight. The sub-confluent cells were then treated either for 4-h or 48-h with IQ9 (0–5000 nM) or doxorubicin (10–20 nM). Following drug treatment, cells were collected, counted, and plated at low-density, in triplicate, and incubated, at 37 °C, 5% CO2, undisturbed, for 2 weeks for TNBC cells and 3 weeks for luminal cells, for colony formation. Colonies were fixed (50% methanol in 0.9% saline solution) and stained (0.5% crystal violet solution). Colonies consisting of more than 50 cells were confirmed by microscopy and scored as survivors. The plating efficiency (PE) was calculated as numbers of colonies formed/ numbers of cells plated. For single-agent treatment, drug or radiation, the surviving fraction was calculated as: number of colonies formed/ (numbers of cell plated x PE). For drug radiation combination experiments, cytotoxicity of drug treatment was accounted for by calculating surviving fraction as: number of colonies formed from each radiation dose/ (number of cells plated × PE × surviving fraction of drug-treated cell at 0 Gy).
(§4) Sub-confluent cells were irradiated with a dose of 2, 4, 6, or 8 Gy (at a dose rate of 0.87 Gy/min) using an RS225 x-ray cabinet irradiation system (Xstrahl Limited, UK), fitted with a 0.5 mm Cu filter and run at 195 kV, 10 mA. Following irradiation, cells were immediately trypsinised and plated for clonogenic survival. Sham-irradiated cells were used as controls. Dose-response curves were plotted as a function of radiation dose on a log/ linear plot. Clonogenic survival calculation software (CS-CAL), developed by the Translational Radiation Oncology Group, German Cancer Research Centre was used to fit survival curves to the linear-quadratic (LQ) model (equation: […] ). The software can be accessed online at http://angiogenesis.dkfz.de/oncoexpress/software/cs-cal/. For drug-radiation combinations, cells were treated with 1000 nM IQ9 (2500 nM for T47D) for 4 h followed by irradiation (0–8 Gy). For 48 h drug treatment experiments, MDA-MB-231 and T47D cells were treated with clonogenic IC50 concentrations of IQ9 before irradiation. The sensitiser enhancement ratio (SER), calculated by dividing the X-ray dose causing 1% cell survival in the absence of drug treatment by the X-ray dose leading to 1% cell survival in the presence of drug treatment, was used to evaluate the degree of radiosensitisation.
as §2

[7] = test system: MDA-MB-468 cells; assay: as above; format: cell-based, human
Procedure: as §3, §4, §2

[8] = test system: T47D cells; assay: as above; format: cell-based, human; details: for SER (sensitiser enhancement ratio): at 1% cell survival
Procedure: as §3, §4, §2

[9] = test system: triple-negative breast cancer cells; assay: Drug-radiation combination clonogenic survival, stated for TNBC cells together; format: cell-based, human; details: IQ9 for 4 h followed by irradiation, range over TNBC cell lines
Procedure: as §3, with “For drug radiation combination experiments, cytotoxicity of drug treatment was accounted for by calculating surviving fraction as: number of colonies formed from each radiation dose/ (number of cells plated × PE × surviving fraction of drug-treated cell at 0 Gy).” left out
Sub-confluent cells were irradiated with a dose of 2, 4, 6, or 8 Gy (at a dose rate of 0.87 Gy/min) using an RS225 x-ray cabinet irradiation system (Xstrahl Limited, UK), fitted with a 0.5 mm Cu filter and run at 195 kV, 10 mA. […] The sensitiser enhancement ratio (SER), calculated by dividing the X-ray dose causing 1% cell survival in the absence of drug treatment by the X-ray dose leading to 1% cell survival in the presence of drug treatment, was used to evaluate the degree of radiosensitisation.

[10] = test system: Trx; assay: Western blotting of Trx expression; format: cell-based, human; details: 48 h
Procedure: (§5) Cells were treated with IQ9 (clonogenic IC50 concentrations) for 48 h, harvested, and resuspended in 1 mL of RIPA buffer (Sigma, UK) supplemented with 1X Halt phosphatase inhibitor cocktail, protease inhibitor cocktail, and EDTA. Samples were run on an SDS-polyacrylamide gel and transferred onto a 0.2 μm nitrocellulose membrane (GE Healthcare). The membrane was then blocked using 5% milk powder in 0.1% PBS/ Tween20, for 1 h at room temperature and then incubated with primary antibody overnight at 4 °C. Anti-β-actin antibody (Abcam) was used as a loading control. Primary antibodies were rabbit anti-human Trx (Abcam; 1:1000), mouse anti-human antibody (Abcam; 1:500), and rabbit anti-human Txnip (Abcam; 1:500). For Trx and Txnip, bands were detected using an Odyssey FC Imager (LI-COR). Images were obtained and fluorescence intensity quantified using Image Studio Software (version 4). The signals for Trx and Txnip were normalised against β-actin. For TrxR, bands were detected using an Amersham Enhanced Chemiluminescence system (GE Healthcare).

[11] = test system: TrxR; assay: Western blotting of TrxR expression; format: cell-based, human; details: clonogenic IC50 concentration, 48 h
Procedure: as §5

[12] = 1000 nM IQ9 for 4 h followed by irradiation
[13] = 1000 nM IQ9 for 4 h followed by irradiation, at 1% cell survival
[14] = IQ9 for 4 h followed by irradiation, vs control
[15] = 2500 nM IQ9 for 4 h followed by irradiation
[16] = clonogenic IC50 concentration of IQ9 for 48 h before irradiation

## COC1=CC(=O)c2c(c(COc3c(F)cc(F)cc3F)cn2C)C1=O [IQ9]
[1]
  IC50: 379 ± 42.4 nM
[2]
  IC50: 246 ± 55.3 nM
[3]
  IC50: 171 ± 81.4 nM
[4]
  IC50: 425 ± 155 nM
[5]
  IC50: 1430 ± 255 nM
[6]; [12]
  SF2 (surviving fraction at 2 Gy): 0.07 ± 0.01
  α: 1.33 ± 0.06* Gy^−1
  α/β Ratio: 66.53 ± 2.89
  β: 0.02 ± 0.00 Gy^−2
[6]; [13]
  SER (sensitiser enhancement ratio): 1.43
[6]; [14]
  factor of increase in α: 1.8
[7]; [12]
  SF2 (surviving fraction at 2 Gy): 0.19 ± 0.01
  α: 0.85 ± 0.08* Gy^−1
  α/β Ratio: 85.00 ± 8.18
  β: 0.01 ± 0.00 Gy^−2
[7]; [13]
  SER (sensitiser enhancement ratio): 1.30
[7]; [14]
  factor of increase in α: 1.4
[8]; [15]
  SF2 (surviving fraction at 2 Gy): 0.45 ± 0.02
  α: 0.47 ± 0.04 Gy^−1
  α/β Ratio: 15.66 ± 1.17
  β: 0.03 ± 0.00 Gy^−2
  SER (sensitiser enhancement ratio): 1.00
[8]; IQ9 exposure 48 h before irradiation
  radiosensitivity (in words): no significant increase in radiosensitivity
[8]; IQ9 for 4 h followed by irradiation
  radiosensitisation (in words): no altered radiosensitisation
[8]; [16]
  SF2 (surviving fraction at 2 Gy): 0.31 ± 0.04
  α: 0.40 ± 0.12 Gy^−1
  α/β Ratio: 7.27 ± 5.53
  β: 0.05 ± 0.02 Gy^−2
  SER (sensitiser enhancement ratio): 1.00
[9]
  SER values (sensitiser enhancement ratios): 1.20–1.43
[10]; MDA-MB-231, clonogenic IC50 concentration, P = 0.003
  expression of Trx: increased expression
[10]; the other four cell lines (MDA-MB-468, MDA-MB-436, T47D, MCF-7), clonogenic IC50 concentration
  expression of Trx: no effect
[11]; TNBC cells
  expression of TrxR: little effect, if any
[11]; luminal cells
  expression of TrxR: Increased expression
